Drawing on patent publication US11613533B2, “Compounds useful for inhibiting RET kinase” (Eli Lilly and Company, priority 2020, dated 2023), this text covers IC50 and EC50 for five compounds.

The target of test [1] is T1, wildtype RET kinase (N-terminal GST tagged recombinant human RET cytoplasmic domain, aa 658-end) (Homo sapiens, UniProt P07949).
T1 construct: human RET cytoplasmic domain (aa 658-end); GST (N); purchased Eurofins 14-570M
T1 sequence (P07949 658-1114 limits assumed): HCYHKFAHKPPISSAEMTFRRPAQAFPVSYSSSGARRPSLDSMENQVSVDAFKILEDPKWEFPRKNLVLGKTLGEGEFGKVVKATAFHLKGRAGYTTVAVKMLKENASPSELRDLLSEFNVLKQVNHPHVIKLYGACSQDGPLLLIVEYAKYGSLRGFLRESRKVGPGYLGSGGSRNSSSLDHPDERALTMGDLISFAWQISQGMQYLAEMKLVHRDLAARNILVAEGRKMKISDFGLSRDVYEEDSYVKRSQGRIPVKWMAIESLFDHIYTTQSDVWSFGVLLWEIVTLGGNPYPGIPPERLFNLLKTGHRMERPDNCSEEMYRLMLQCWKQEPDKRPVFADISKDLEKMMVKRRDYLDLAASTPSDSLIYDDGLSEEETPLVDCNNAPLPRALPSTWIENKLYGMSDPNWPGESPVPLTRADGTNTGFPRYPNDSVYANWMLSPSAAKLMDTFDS
In words: RET enzyme assay (HTRF KinEASE TK), wildtype. Type of test: biochemical. The note with it: 1 mM ATP, 60 min incubation at 22° C. As to the method: Assay A: RET Enzyme Assay
Compounds of formulas I, II, or III are screened for their ability to inhibit wildtype, V804M, and G810S mutant RET kinase using CisBio's HTRF® KinEASE™TK assay technology. N-terminal GST tagged recombinant human RET cytoplasmic domain (aa 658-end) from Eurofins ([…]; Catalog No. 14-570M) or N-terminal GST tagged recombinant human V804M mutant RET cytoplasmic domain (aa 658-end) from Millipore (1.25 nM enzyme; Catalog No. 14-760) or N-Terminal GST-tagged recombinant human G810S (aa-658-end) (1.25 nM Enzyme; produced in insect cells) is incubated with 62.5 nM TK-substrate biotin (CisBio, part of Catalog No. 62TK0PEC) and 1 mM ATP along with test compound (0.4% final DMSO in the assay) in a 1× Cisbio enzymatic buffer consisting of […], 5 mM MgCl2, 0.04% BSA and 0.05% Tween20 in a volume of 10 μL. Compounds are typically prepared in a threefold serial dilution in DMSO and added to the assay to give the appropriate final concentration. After a 40-60 min (40 min for V804M, 60 min for WT and G810S) incubation at 22° C., the reaction is quenched by adding quench solution (10 μL) containing 7.8 nM Streptavidine-XL665 and 0.5×TK-ab-Cryptate in HTRF detection buffer (all from CisBio, part of Cat. No. 62TK0PEC). After a 60-80 min incubation (60 minutes for WT, 80 minutes for V804M and G810S) at 22° C., the extent of reaction is determined using a PHERastar plate reader via HTRF detection at excitation/emission 337/665 nm. Percent of inhibition is calculated with 0% inhibition referring to control conditions containing no compound (0.4% DMSO only) and 100% inhibition represented by conditions containing no enzyme. The % inhibition values are fit to a 4 parameter logistic curve, and the determined IC50 value is defined as the estimated concentration of inhibitor at the inflexion point of the fitted curve.
In general terms: In TR-FRET formats the signal depends on donor and acceptor labels being close together.

The target of test [2] is T2, KIF5B-RET mutant form V804M in HEK293 cells (Homo sapiens, UniProt P07949, V804M).
T2 construct: expressed in transfected cells; host or cells: HEK293; the other entry of the earlier key: KIF5B (P33176, Kinesin-1 heavy chain)
T2 sequence (P07949 713-1063 V804M limits assumed): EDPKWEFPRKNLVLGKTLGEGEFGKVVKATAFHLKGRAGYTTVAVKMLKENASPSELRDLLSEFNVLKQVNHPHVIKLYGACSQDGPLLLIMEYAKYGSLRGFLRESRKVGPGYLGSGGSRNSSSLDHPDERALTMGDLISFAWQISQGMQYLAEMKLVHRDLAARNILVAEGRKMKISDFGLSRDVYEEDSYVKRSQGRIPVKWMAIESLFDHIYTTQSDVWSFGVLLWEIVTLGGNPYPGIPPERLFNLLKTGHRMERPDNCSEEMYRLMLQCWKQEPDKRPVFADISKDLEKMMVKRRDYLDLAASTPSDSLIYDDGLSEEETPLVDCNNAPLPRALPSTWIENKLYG
In words: RET cell assay (In-Cell Western, phospho-RET Y1062), V804M. Type of test: cell-based. To be noted: HEK293, doxycycline-induced KIF5B-RET V804M, 1 hr compound treatment; read-out: EC50, inhibition of intracellular autophosphorylation of RET at tyrosine 1062, V804M cells. As to the method: Compounds of formulas (I), (II), and (III) are screened for their ability to inhibit the intracellular autophosphorylation of RET at tyrosine 1062 as detected by In-Cell Western. HEK293 cells containing a doxycycline-inducible plasmid for inducible expression of KIF5B-RET WT and RET mutant forms V804M and G810S are seeded at 25,000 cells/well into black poly-D-lysine pre-coated 384-well plates (Corning, Catalog No. 356697). Expression of KIF5B-RET is induced with doxycycline at 1 μg/mL and cells are incubated at 37° C. overnight. Compounds are prepared in a threefold serial dilution in DMSO before further diluting 1:100 in media prior to the addition to the cells (0.1% final DMSO concentration). Compound treatment is performed for 1 hr at 37° C. followed by fixation of cells with 4% formaldehyde for 20 min at RT and cell permeabilisation with ice-cold MeOH for 10 min at RT. Cells are incubated with Intercept® blocking buffer (Li—COR, Catalogue No. 927-70010) for 1 hr at RT. Incubation with primary antibodies against human phospho-RET (Y1062) (R&D, Catalogue No. AF5009, 1/250 dilution) and human glyceraldehyde-3-phosphate dehydrogenase (clone 6C5, Merck, Catalog No. MAB374, 1/1000 dilution) are performed overnight at 4° C. Incubation with secondary antibodies IRDye® 800CW goat anti-rabbit IgG (Li—COR, Catalogue No. 926-32211, 1/1000 dilution) and IRDye® 680CW goat anti-mouse IgG (Li—COR, Catalogue No. 926-68070, 1/1000 dilution) are performed for 1 hr at RT. All antibody dilutions are done in Intercept® blocking buffer containing 0.05% Tween20. After washing cells with PBS-T (Cell Signaling technology, Catalogue No. 9809), the images are acquired on a Li—COR Odyssey LCx at 700 and 800 nm. Percent of DMSO control is calculated with 100% signal referring to control conditions containing no compound (0.4% DMSO only) and 0% signal represented by conditions containing control compound. The % of DMSO control values are fit to a 4 parameter logistic curve, and the determined EC50 value is defined as the estimated concentration of inhibitor at the inflexion point of the fitted curve.

Where only a bound is given, the exact number is not on record here.

As to `CC(C(=O)Nc1cc(C(C)(C)C(C)(F)F)on1)c1ccc(-c2nn(C(C)C)c(N)c2C(N)=O)cc1` (single isomer, unassigned; isomer 2) [Example 76, 5-Amino-3-[4-(1-[[5-(3,3-difluoro-2-methylbutan-2-yl)-1,2-oxazol-3-yl]carbamoyl]ethyl)phenyl]-1-isopropylpyrazole-4-carboxamide, Isomer 2], in test [1], the IC50 is below 100 nM. For the same compound, the EC50 in test [2] was below 100 nM.
On to `CC(C(=O)Nc1cc(C(C)(C)C)sn1)c1ccc(-c2nn(C(C)C)c(N)c2C(N)=O)cc1` (single isomer, unassigned; isomer 2) [Example 80, 5-Amino-3-(4-[1-[(5-tert-butyl-1,2-thiazol-3-yl)carbamoyl]ethyl]phenyl)-1-isopropylpyrazole-4-carboxamide, isomer 2], for which the IC50 in test [1] is below 100 nM. Moreover, the EC50 in test [2] is below 100 nM.
Regarding `CCC(C)(C)c1cc(NC(=O)C(C)c2ccc(-c3nn(C(C)C)c(N)c3C(N)=O)cn2)on1` (single isomer, unassigned; isomer 2) [Example 84, 5-Amino-1-isopropyl-3-[6-[2-[[3-(1,1-dimethylpropyl)isoxazol-5-yl]amino]-1-methyl-2-oxo-ethyl]-3-pyridyl]pyrazole-4-carboxamide, Isomer 2], the half-inhibitory concentration (IC50) in test [1] was below 100 nM. Further, the EC50 in test [2] was below 100 nM.
On to `CC(C(=O)Nc1cc(C(C)(C)C(F)(F)F)no1)c1ccc(-c2nn(C(C)C)c(N)c2C(N)=O)cn1` (single isomer, unassigned; isomer 2) [Example 90, 5-Amino-1-isopropyl-3-[6-[1-methyl-2-oxo-2-[[3-(2,2,2-trifluoro-1,1-dimethyl-ethyl)isoxazol-5-yl]amino]ethyl]-3-pyridyl]pyrazole-4-carboxamide, Isomer 2], for which the IC50 in test [1] was below 100 nM. Besides, the EC50 in test [2] is below 100 nM.
In the case of `CC(C(=O)Nc1cc(-c2ccc(Cl)cc2Cl)no1)c1ccc(-c2nn(C(C)C)c(N)c2C(N)=O)cn1` (single isomer, unassigned; isomer 2) [Example 94, 5-Amino-1-isopropyl-3-[6-[2-[[3-(2,4-dichlorophenyl)isoxazol-5-yl]amino]-1-methyl-2-oxo-ethyl]-3-pyridyl]pyrazole-4-carboxamide, Isomer 2], the IC50 in test [1] was below 100 nM. In test [2], the EC50 is below 100 nM.

Broadly, the IC50 is the midpoint of a concentration-inhibition curve. In general, EC50 refers to the concentration that produces a half-maximal response.
